# According to PMC3760497 (Nature, 2011):
# Molecular target: Get3 (Saccharomyces cerevisiae, UniProt Q12154, D57N)
# Assay: mant-ATP chase titration, fluorescence
# Assay type: binding
# Settings: 1 uM Get3(D57N), 1 uM mant-ATP; 50 mM HEPES pH 7.5, 100 mM NaCl, 5 mM MgCl2; competitive with mant-ATP
# Sequence of Get3 (Q12154 whole entry D57N): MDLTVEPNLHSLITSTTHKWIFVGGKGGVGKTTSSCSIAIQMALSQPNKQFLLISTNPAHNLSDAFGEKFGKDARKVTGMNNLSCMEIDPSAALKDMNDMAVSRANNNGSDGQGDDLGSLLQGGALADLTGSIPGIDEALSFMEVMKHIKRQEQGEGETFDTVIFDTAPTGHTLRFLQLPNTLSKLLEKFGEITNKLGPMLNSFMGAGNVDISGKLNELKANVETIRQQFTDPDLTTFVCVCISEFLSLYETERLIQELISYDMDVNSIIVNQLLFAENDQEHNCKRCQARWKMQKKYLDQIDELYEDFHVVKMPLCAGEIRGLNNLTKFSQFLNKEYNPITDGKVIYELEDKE
structure (smiles),measurement,value
Nc1ncnc2c1ncn2[C@@H]1O[C@H](COP(=O)(O)OP(=O)(O)O)[C@@H](O)[C@H]1O [ADP],dissociation constant,ADP (which binds weakly to substrate-free Get3; Sup. Fig. S18)
